Data from patent US20220241249A1, “PHARMACEUTICAL COMPOSITION AND KIT CONTAINING NOVEL PENAM DERIVATIVE OR SALT THEREOF AND ONE OR MORE COMPOUNDS SELECTED FROM beta-LACTAMASE INHIBITORY COMPOUND AND ANTIBACTERIAL COMPOUND OR SALTS THEREOF” (priority 2019, published 2022).
≈ marks a conversion by molar mass, not a printed value.

What was measured:
Assay in all cases: Antibacterial activity evaluation test, MIC by broth microdilution (CLSI)
Assay type in all cases: cell-based
[1] = test system: CTX-M-15-containing Escherichia coli strain (TK-1747); details: Escherichia coli
Description: (§1) The minimum inhibitory concentration (MIC) was measured according to the Clinical and Laboratory Standards Institute (CLSI) standard method by using the following broth microdilution method.
(§2) As bacteria, a Pseudomonas aeruginosa strain ATCC27853, an AmpC-derepressed Pseudomonas aeruginosa mutant strain (S-3028), an IMP-1-containing Pseudomonas aeruginosa strain (S-2838), a VIM-2-containing Pseudomonas aeruginosa strain (S-3779), a GES-19 and GES-20-containing Pseudomonas aeruginosa strain (S-3759), a CTX-M-15-containing Escherichia coli strain (TK-1747), a KPC-2-containing Klebsiella pneumoniae strain (Y-995), an OXA-48-containing Klebsiella pneumoniae strain (Y-1062), and an NDM-1-containing Klebsiella pneumoniae strain (Y-1007) were used. The test bacterial cells that had been cultured overnight on a Mueller Hinton agar medium were scraped off, suspended at a density equivalent to 0.5 McFarland standard, and diluted 10-fold, thereby obtaining an inoculum. A cation-adjusted Mueller Hinton medium containing a test compound was inoculated with 0.005 mL of the inoculum, and the cells were cultured at 35° C. for 16 to 20 hours. The minimum drug concentration at which the growth of bacteria was not visually observed was defined as MIC (μg/mL).
(§3) An antibacterial activity evaluation test was performed in the same manner as in Test Example 1.

[2] = test system: AmpC-derepressed Pseudomonas aeruginosa mutant strain (S-3028); details: Pseudomonas aeruginosa
Description: as §1, §2, §3

[3] = test system: NDM-1-containing Klebsiella pneumoniae strain (Y-1007); details: Klebsiella pneumoniae
Description: as §1, §2, §3

[4] = test system: KPC-2-containing Klebsiella pneumoniae strain (Y-995); details: Klebsiella pneumoniae
Description: as §1, §2, §3

[5] = test system: Pseudomonas aeruginosa strain ATCC27853; details: Pseudomonas aeruginosa, ATCC27853
Description: as §1, §2, §3

[6] = test system: OXA-48-containing Klebsiella pneumoniae strain (Y-1062); details: Klebsiella pneumoniae
Description: as §1, §2, §3

[7] = test system: GES-19 and GES-20-containing Pseudomonas aeruginosa strain (S-3759); details: Pseudomonas aeruginosa
Description: as §1, §2, §3

[8] = test system: VIM-2-containing Pseudomonas aeruginosa strain (S-3779); details: Pseudomonas aeruginosa
Description: as §1, §2, §3

[9] = test system: IMP-1-containing Pseudomonas aeruginosa strain (S-2838); details: Pseudomonas aeruginosa
Description: as §1, §2, §3

Row | Compound | MIC [1] | MIC [2] | MIC [3] | MIC [4] | MIC [5] | MIC [6] | MIC [7] | MIC [8] | MIC [9]
1 | CC(C)(O/N=C(\C(=O)N[C@@H]1C(=O)N2C[C@@](C(=O)O)(N3CCN(NC(=O)CNC(=O)C(=O)c4ccc(O)c(O)c4Cl)C3=O)S[C@H]12)c1csc(N)n1)C(=O)O [Example 29] | 2 µg/mL (≈ 2.51 µM) | < 0.06 µg/mL | < 0.06 µg/mL | 0.5 µg/mL (≈ 0.626 µM) | 0.25 µg/mL (≈ 0.313 µM) | 1 µg/mL (≈ 1.25 µM) | 0.5 µg/mL (≈ 0.626 µM) | 0.5 µg/mL (≈ 0.626 µM) | 1 µg/mL (≈ 1.25 µM)
2 | Nc1nc(/C(=N/OC2(C(=O)O)CC2)C(=O)N[C@@H]2C(=O)N3C[C@@](C(=O)O)(N4CCN(NC(=O)c5ccc(O)c(O)c5Cl)C4=O)S[C@H]23)cs1 [Example 8, (3R,5R,6R)-6-((Z)-2-(2-aminothiazol-4-yl)-2-((1-carboxycyclopropoxy)imino)acetamido)-3-(3-(2-chloro-3,4-dihydroxybenzamido)-2-oxoimidazolidin-1-yl)-7-oxo-4-thia-1-azabicyclo[3.2.0]heptane-3-carboxylic acid] | 0.12 µg/mL (≈ 0.169 µM) | 0.5 µg/mL (≈ 0.703 µM) | < 0.06 µg/mL | 0.06 µg/mL (≈ 0.0844 µM) | 0.25 µg/mL (≈ 0.352 µM) | 16 µg/mL (≈ 22.5 µM) | 2 µg/mL (≈ 2.81 µM) | 1 µg/mL (≈ 1.41 µM) | 4 µg/mL (≈ 5.63 µM)
3 | Nc1nc(/C(=N/OC2(C(=O)O)CC2)C(=O)N[C@@H]2C(=O)N3C[C@@](C(=O)O)(N4CCN(NC(=O)C(=O)c5ccc(O)c(O)c5Cl)C4=O)S[C@H]23)c(Cl)s1 [Example 76, (3R,5R,6R)-6-((Z)-2-(2-amino-5-chlorothiazol-4-yl)-2-((1-carboxycyclopropoxy)imino)acetamido)-3-(3-(2-(2-chloro-3,4-dihydroxyphenyl)-2-oxoacetamido)-2-oxoimidazolidin-1-yl)-7-oxo-4-thia-1-azabicyclo[3.2.0]heptane-3-carboxylic acid] | 0.06 µg/mL (≈ 0.0776 µM) | 0.12 µg/mL (≈ 0.155 µM) | 0.25 µg/mL (≈ 0.323 µM) | 0.25 µg/mL (≈ 0.323 µM) | 0.5 µg/mL (≈ 0.646 µM) | 0.25 µg/mL (≈ 0.323 µM) | 0.25 µg/mL (≈ 0.323 µM) | 0.25 µg/mL (≈ 0.323 µM) | 0.5 µg/mL (≈ 0.646 µM)
4 | CC(C)(O/N=C(\C(=O)N[C@@H]1C(=O)N2C[C@@](C(=O)O)(n3ncn(NC(=O)C(=O)c4ccc(O)c(O)c4Cl)c3=O)S[C@H]12)c1csc(N)n1)C(=O)O [Example 26, (3R,5R,6R)-6-((Z)-2-(2-aminothiazol-4-yl)-2-(((2-carboxypropan-2-yl)oxy)imino)acetamido)-3-(4-(2-(2-chloro-3,4-dihydroxyphenyl)-2-oxoacetamido)-5-oxo-4,5-dihydro-1H-1,2,4-triazol-1-yl)-7-oxo-4-thia-1-azabicyclo[3.2.0]heptane-3-carboxylic acid] | 0.12 µg/mL (≈ 0.162 µM) | 0.12 µg/mL (≈ 0.162 µM) | < 0.06 µg/mL | 0.12 µg/mL (≈ 0.162 µM) | 1 µg/mL (≈ 1.35 µM) | 0.5 µg/mL (≈ 0.676 µM) | 0.25 µg/mL (≈ 0.338 µM) | 0.25 µg/mL (≈ 0.338 µM) | 0.25 µg/mL (≈ 0.338 µM)
5 | CC(C)(O/N=C(\C(=O)N[C@@H]1C(=O)N2C[C@@](C(=O)O)(n3cc(CNC(=O)c4ccc(O)c(O)c4Cl)nn3)S[C@H]12)c1csc(N)n1)C(=O)O [Example 74, (3R,5R,6R)-6-((Z)-2-(2-aminothiazol-4-yl)-2-(((2-carboxypropan-2-yl)oxy)imino)acetamido)-3-(4-((2-chloro-3,4-dihydroxybenzamido)methyl)-1H-1,2,3-triazol-1-yl)-7-oxo-4-thia-1-azabicyclo[3.2.0]heptane-3-carboxylic acid] | 1 µg/mL (≈ 1.41 µM) | 0.5 µg/mL (≈ 0.704 µM) | 0.25 µg/mL (≈ 0.352 µM) | 2 µg/mL (≈ 2.82 µM) | 0.5 µg/mL (≈ 0.704 µM) | 4 µg/mL (≈ 5.63 µM) | 1 µg/mL (≈ 1.41 µM) | 1 µg/mL (≈ 1.41 µM) | 0.25 µg/mL (≈ 0.352 µM)
6 | CC(C)(O/N=C(\C(=O)N[C@@H]1C(=O)N2C[C@@](C(=O)O)(N3CCN(NC(=O)CCNC(=O)c4ccc(O)c(O)c4Cl)C3=O)S[C@H]12)c1csc(N)n1)C(=O)O [Example 28, (3R,5R,6R)-6-((Z)-2-(2-aminothiazol-4-yl)-2-(((2-carboxypropan-2-yl)oxy)imino)acetamido)-3-(3-(3-(2-chloro-3,4-dihydroxybenzamido)propanamido)-2-oxoimidazolidin-1-yl)-7-oxo-4-thia-1-azabicyclo[3.2.0]heptane-3-carboxylic acid] | 2 µg/mL (≈ 2.55 µM) | 0.25 µg/mL (≈ 0.319 µM) | < 0.06 µg/mL | 1 µg/mL (≈ 1.28 µM) | 0.5 µg/mL (≈ 0.638 µM) | 0.25 µg/mL (≈ 0.319 µM) | 2 µg/mL (≈ 2.55 µM) | 0.5 µg/mL (≈ 0.638 µM) | 0.25 µg/mL (≈ 0.319 µM)
